Assays:
[1] = test system: multiple myeloma cell line NCI-H929; experiment: H929 Cell Viability Assay; format: cell-based, human; details: Homo sapiens, NCI-H929, 48 h, NCI-H929 cells, Celltiter-Glo
In short: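 A 48-hour compound treatment of cells in 10% FBS RPMI medium was followed by luciferase-based viability quantification.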

[2] = test system: PD1-ss+10aa/Gaussia Luciferase; experiment: Dox-Induced PD1-ss-Gluc Assay; format: cell-based; details: 24 hr Dox induction; 293FRT/TO cells; read-out: 24 hr Dox Inducible PD1ssGluc 293FRT/TO: Mean IC50
In short: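 The cell line was made by transfecting Flp-In 293 T-REx cells with a PD1 signal sequence+10aa–Gaussia luciferase fusion under T-REx control and selecting with hygromycin and blasticidin. Cells were seeded, and next day compound plus doxycycline was added at 37 °C, 5% CO2.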

[3] = test system: multiple myeloma cell line U266B1; experiment: U266 Cell Viability Assay; format: cell-based, human; details: Homo sapiens, U-266, 48 h, U266B1 cells, Celltiter-Glo
In short: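 After growth in serum-supplemented RPMI 1640, cells received serially diluted compound in DMSO/media and were kept 48 hours before a CellTiter-Glo luminescence readout.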

[4] = test system: IL-2-FL/Gaussia Luciferase; experiment: Dox Induced IL2-FL-Gluc Assay; format: cell-based; details: for IC50: 24 hr Dox induction, 293FRT/TO cells, read-out: 24 hr Dox Inducible IL2FLGluc 293FRT/TO: Mean IC50; for 24 hr Dox Inducible IL2FLGluc 293FRT/TO: IL2/PD1: ratio of IL2FLGluc IC50 to PD1ssGluc IC50
In short: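 A hygromycin- and blasticidin-resistant 293 T-REx clone carrying inducible IL-2–Gaussia luciferase (full-length IL-2, residues 1-153) serves as the cell system. After overnight plating, the cells get test compounds together with doxycycline in DMSO/media and are incubated at 37° C, 5% CO2.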

[5] = Liver Microsome Stability Assay (monkey); details: monkey liver microsomes, with NADPH, 1.0 uM compound
Method: (§1) Stability of a compound was assessed in the presence of liver microsomes from various sources—mouse, rat, monkey and human liver microsomes. 1.0 uM compound, 0.4% DMSO in 0.1 M Potassium Phosphate with 1.0 mg/mL liver microsomes, were incubated at 37° C. with or without 1 mM NADPH. The samples were quenched at 0, and 30 minutes.

[6] = test system: TNFα-FL/Gaussia Luciferase; experiment: Dox Induced TNFα-FL-Gluc Assay; format: cell-based; details: for IC50: 24 hr Dox induction, 293FRT/TO cells, read-out: 24 hr Dox Inducible TNFaFLGluc 293FRT/TO: Mean IC50; for 24 hr Dox Inducible TNFaFLGluc 293FRT/TO: TNF/PD1: ratio of TNFaFLGluc IC50 to PD1ssGluc IC50
In short: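 Hygromycin/blasticidin-selected Flp-In 293 T-REx cells, TNFα-FL/Gaussia luciferase fusion under T-REx control; overnight plating, then compound in DMSO/media with doxycycline at 37 °C, 5% CO2; stereo-undefined structures tested as mixtures.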

[7] = test system: HER3-ss+4aa/Gaussia Luciferase; experiment: Dox-Induced Her3-ss-Gluc Assay; format: cell-based; details: 24 hr Dox induction; 293FRT/TO cells; read-out: 24 hr Dox Inducible Her3(ss + 4)Gluc 293FRT/TO: Mean IC50
In short: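 Doxycycline-inducible HER3 signal sequence+4aa/Gaussia luciferase construct, stably integrated in Flp-In 293 T-REx cells; compound dilutions applied with doxycycline at 37° C., 5% CO2.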

[8] = Liver Microsome Stability Assay (mouse); details: mouse liver microsomes, with NADPH, 1.0 uM compound
Method: as §1

[9] = Liver Microsome Stability Assay (rat); details: rat liver microsomes, with NADPH, 1.0 uM compound
Method: as §1

[10] = Liver Microsome Stability Assay (human); details: human liver microsomes, with NADPH, 1.0 uM compound
Method: as §1

Row | EC50 [1] [µM] | IC50 [2] [µM] | EC50 [3] [µM] | IC50 [4] [µM] | Liver Microsome Stability (Multiple Species): Monkey - % Remaining after 30 min w/NADPH [5] [%] | IC50 [6] [µM] | IC50 [7] [µM] | Liver Microsome Stability (Multiple Species): Mouse - % Remaining after 30 min w/NADPH [8] [%] | Liver Microsome Stability (Multiple Species): Rat - % Remaining after 30 min w/NADPH [9] [%] | Liver Microsome Stability (Multiple Species): Human - % Remaining after 30 min w/NADPH [10] [%] | SMILES | 24 hr Dox Inducible IL2FLGluc 293FRT/TO: IL2/PD1 [4] | 24 hr Dox Inducible TNFaFLGluc 293FRT/TO: TNF/PD1 [6]
1 | 0.448 | 0.0187 | > 25 | 0.0328 | 0.4 | 0.162 | 0.0221 | 0.22 | 42.4 | 6.01 | CC(=O)N1CCC(C)(Oc2ccc(N3CCC[C@@H]3c3csc(NC(=O)c4cccn4Cc4ccnc(F)c4)n3)cc2)CC1 [Compound A97, (R)-N-(4-(1-(4-((1-acetyl-4-methylpiperidin-4-yl)oxy)phenyl)pyrrolidin-2-yl)thiazol-2-yl)-1-((2-fluoropyridin-4-yl)methyl)-1H-pyrrole-2-carboxamide] | 1.7 | 8.64
2 | 0.0224 | 0.00091 | > 25 | 0.00225 | 0.48 | 0.0201 | 0.00205 | 1.29 | 1.18 | 2.43 | CC(=O)Nc1ccc(N2CCC[C@@H]2c2csc(NC(=O)c3cccn3Cc3ccnc(F)c3)n2)c(F)c1 [Compound A98, (R)-N-(4-(1-(4-acetamido-2-fluorophenyl)pyrrolidin-2-yl)thiazol-2-yl)-1-((2-fluoropyridin-4-yl)methyl)-1H-pyrrole-2-carboxamide] | 2.5 | 22.2
3 | 5.3 | 0.127 | > 25 | 0.348 | 0.12 | 5.91 | 0.284 | 1.28 | 0.49 | 1.85 | CC(=O)Nc1c(F)cc(N2CCC[C@@H]2c2csc(NC(=O)c3cccn3Cc3ccnc(F)c3)n2)cc1F [Compound A99, (R)-N-(4-(1-(4-acetamido-3,5-difluorophenyl)pyrrolidin-2-yl)thiazol-2-yl)-1-((2-fluoropyridin-4-yl)methyl)-1H-pyrrole-2-carboxamide] | 2.8 | 46.7
4 | 0.443 | 0.0228 | > 25 | 0.0342 | 0.24 | 0.195 | 0.032 | 3.12 | 14.8 | 3.16 | CC(=O)N1CCC(Oc2ccc(N3CCC[C@@H]3c3csc(NC(=O)c4cccn4Cc4ccnc(F)c4)n3)c(F)c2)CC1 [Compound A100, (R)-N-(4-(1-(4-((1-acetylpiperidin-4-yl)oxy)-2-fluorophenyl)pyrrolidin-2-yl)thiazol-2-yl)-1-((2-fluoropyridin-4-yl)methyl)-1H-pyrrole-2-carboxamide] | 1.5 | 8.57
5 | 1.27 | 0.0479 | 12.8 | 0.0943 | 14.5 | 0.379 | 0.0682 | 62.7 | 76.5 | 2.2 | NCCOc1ccc(N2CCC[C@@H]2c2csc(NC(=O)c3cccn3Cc3ccnc(F)c3)n2)cc1 [Compound A101, (R)-N-(4-(1-(4-(2-aminoethoxy)phenyl)pyrrolidin-2-yl)thiazol-2-yl)-1-((2-fluoropyridin-4-yl)methyl)-1H-pyrrole-2-carboxamide] | 2 | 7.92
